From ChEMBL document CHEMBL1131383, “Syntheses and biological evaluation of indolocarbazoles, analogues of rebeccamycin, modified at the imide heterocycle” (J Med Chem, 1998)
≈ marks a conversion by molar mass, not a printed value.

Legend:
[1] = test system: B16; assay: Antiproliferative activity measured against murine B16 melanoma cells; format: functional, cell-based; conditions: Mus musculus
[2] = test system: Bacillus cereus; assay: In Vitro growth inhibitory effect of compounds against Gram-Positive Bacteria Bacillus cereus ATCC 14579; format: functional
[3] = test system: Bacillus cereus; assay: Antimicrobial activity is tested against Bacillus cereus; format: functional
[4] = test system: CEM-SS; assay: Inhibitory concentration is tested in HIV-1 Lai-infected CEM-SS cells; format: functional, cell-based; conditions: Homo sapiens
[5] = test system: CEM-SS; assay: Cytotoxic concentration is tested against CEM-SS cells; format: functional; conditions: Homo sapiens
[6] = test system: P388; assay: Antiproliferative activity measured against P388 Leukemia cells; format: functional, cell-based, Mus musculus
[7] = test system: Streptomyces chartreusis; assay: In Vitro growth inhibitory effect of compounds against Gram-Positive Bacteria Streptomyces chartreusis NRRL11407; format: functional
[8] = molecular target: T1, DNA topoisomerase 1 (Homo sapiens) (UniProt P11387); assay: Inhibition of human Topoisomerase I
T1 sequence (whole entry): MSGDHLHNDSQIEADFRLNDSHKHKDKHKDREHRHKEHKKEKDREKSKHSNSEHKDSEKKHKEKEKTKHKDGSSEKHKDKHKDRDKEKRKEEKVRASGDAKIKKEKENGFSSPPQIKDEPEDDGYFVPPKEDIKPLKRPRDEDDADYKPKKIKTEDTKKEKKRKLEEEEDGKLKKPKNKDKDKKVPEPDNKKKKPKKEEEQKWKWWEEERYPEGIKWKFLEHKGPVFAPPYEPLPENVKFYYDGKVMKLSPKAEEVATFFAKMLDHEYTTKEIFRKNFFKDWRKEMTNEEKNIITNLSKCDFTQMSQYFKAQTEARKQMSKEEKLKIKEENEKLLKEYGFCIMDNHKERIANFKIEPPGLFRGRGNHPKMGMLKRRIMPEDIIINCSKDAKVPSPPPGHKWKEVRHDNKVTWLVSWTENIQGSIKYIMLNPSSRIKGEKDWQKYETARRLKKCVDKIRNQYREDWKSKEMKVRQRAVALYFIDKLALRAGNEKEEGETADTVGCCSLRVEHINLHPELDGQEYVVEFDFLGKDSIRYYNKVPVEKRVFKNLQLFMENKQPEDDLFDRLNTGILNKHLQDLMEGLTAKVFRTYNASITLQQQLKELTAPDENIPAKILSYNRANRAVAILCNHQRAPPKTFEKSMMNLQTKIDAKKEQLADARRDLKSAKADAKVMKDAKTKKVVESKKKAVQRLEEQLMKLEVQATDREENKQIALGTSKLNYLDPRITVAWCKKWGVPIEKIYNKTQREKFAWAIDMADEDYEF

[9] = test system: P388CPT5; assay: Antiproliferative activity measured against P388CPT5 cells resistant to Topoisomerase I inhibitor Camptothecin; format: functional, cell-based; conditions: Mus musculus
[10] = Selectivity was measured [Selectivity = (CC50/IC50) against HIV-1 infected CEM-SS cells]; format: functional
[11] = molecular target: Protein kinase C (PKC); assay: Inhibition of Protein kinase C; format: protein assay

SMILES	IC50 [1]	Inhibition zone [2]	MIC [3]	IC50 [4]	CC50 [5]	IC50 ([6]; Mus musculus, P388)	Inhibition zone [7]	MIC [8]	IC50 [9]	Selectivity index [10]	IC50 [11]	IC50 ([6]; p388)
CO[C@H]1[C@H](O)[C@@H](O)[C@H](n2c3ccccc3c3c4c(c5c6ccccc6n(C)c5c32)C(=O)N(C)C4=O)O[C@@H]1CO	8 µM	8 mm	94 µM (≈ 49.8 µg/mL)	> 19 µM	> 19 µM	> 19 µM	12 mm	> 19 µM	–	–	–	–
CO[C@H]1[C@H](O)[C@@H](O)[C@H](n2c3ccccc3c3c4c(c5c6ccccc6[nH]c5c32)C(=O)NC4=O)O[C@@H]1CO	0.9 µM	7 mm	> 100 µM	0.16 µM	0.9 µM	0.69 µM	–	0.59 µM (≈ 0.296 µg/mL)	> 20 µM	5.6	–	–
CO[C@H]1[C@H](O)[C@@H](O)[C@H](n2c3ccccc3c3c4c(c5c6ccccc6n(C)c5c32)C(=O)OC4=O)O[C@@H]1CO	31 µM	–	> 97 µM	> 9.7 µM	> 9.7 µM	> 19 µM	7 mm	> 19 µM	–	–	–	–
CO[C@H]1[C@H](O)[C@@H](O)[C@H](n2c3ccccc3c3c4c(c5c6ccccc6[nH]c5c32)C(=O)N(C)C4=O)O[C@@H]1CO	–	–	1.55 µM (≈ 0.799 µg/mL)	4.17 µM	7.96 µM	1.06 µM	–	–	0.7 µM	1.9	> 100 µM	–
CO[C@H]1[C@H](O)[C@@H](O)[C@H](n2c3ccccc3c3c4c(c5c6ccccc6[nH]c5c32)C(=O)NC4)O[C@@H]1CO.CO[C@H]1[C@H](O)[C@@H](O)[C@H](n2c3ccccc3c3c4c(c5c6ccccc6[nH]c5c32)CNC4=O)O[C@@H]1CO	–	–	25 µM	4.1 µM	14.3 µM	–	–	0.02 µM	3 µM	3.5	3.7 µM	–
CO[C@H]1[C@H](O)[C@@H](O)[C@H](n2c3ccccc3c3c4c(c5c6ccccc6[nH]c5c32)C(=O)OC4=O)O[C@@H]1CO	17.5 µM	–	> 99 µM	> 1.98 µM	> 1.98 µM	6.36 µM	7 mm	1.99 µM (≈ 1 µg/mL)	> 20 µM	–	–	–
CO[C@H]1[C@H](O)[C@@H](O)[C@H](n2c3c(Cl)cccc3c3c4c(c5c6cccc(Cl)c6[nH]c5c32)C(=O)N(C)C4)O[C@@H]1CO.CO[C@H]1[C@H](O)[C@@H](O)[C@H](n2c3c(Cl)cccc3c3c4c(c5c6cccc(Cl)c6[nH]c5c32)CN(C)C4=O)O[C@@H]1CO	0.48 µM	–	> 88 µM	0.31 µM	1.72 µM	0.52 µM	9 mm	17.6 µM	4.03 µM	5.5	–	–
CO[C@H]1[C@H](O)[C@@H](O)[C@H](n2c3c(Cl)cccc3c3c4c(c5c6cccc(Cl)c6[nH]c5c32)C(=O)N(C)C4=O)O[C@@H]1CO (stereo in doubt; A)	–	–	> 85 µM	5.06 µM	8.06 µM	–	–	–	0.6 µM	1.6	> 100 µM	0.61 µM
CO[C@H]1[C@H](O)[C@@H](O)[C@H](n2c3c(Cl)cccc3c3c4c(c5c6cccc(Cl)c6[nH]c5c32)C(=O)NC4)O[C@@H]1CO.CO[C@H]1[C@H](O)[C@@H](O)[C@H](n2c3c(Cl)cccc3c3c4c(c5c6cccc(Cl)c6[nH]c5c32)CNC4=O)O[C@@H]1CO	–	–	5.6 µM	0.36 µM	1.15 µM	> 125 µM	–	1.8 µM	3 µM	3.2	28.8 µM	–
CO[C@H]1[C@H](O)[C@@H](O)[C@H](n2c3ccc(Br)cc3c3c4c(c5c6cc(Br)ccc6[nH]c5c32)C(=O)OC4=O)O[C@@H]1CO	13 µM	–	> 75 µM	4.85 µM	9.39 µM	0.91 µM	–	1.52 µM (≈ 1 µg/mL)	7.58 µM	1.9	–	–
CO[C@H]1[C@H](O)[C@@H](O)[C@H](n2c3ccccc3c3c4c(c5c6ccccc6[nH]c5c32)C(=O)N(C)C4)O[C@@H]1CO.CO[C@H]1[C@H](O)[C@@H](O)[C@H](n2c3ccccc3c3c4c(c5c6ccccc6[nH]c5c32)CN(C)C4=O)O[C@@H]1CO	5 µM	9 mm	24 µM	0.6 µM	8.38 µM	3.39 µM	9 mm	19.9 µM	> 19.9 µM	14	–	–
CO[C@H]1[C@H](O)[C@@H](O)[C@H](n2c3c(Cl)cccc3c3c4c(c5c6cccc(Cl)c6[nH]c5c32)C(=O)NC4=O)O[C@@H]1CO [REBECCAMYCIN]	–	9 mm	10.9 µM (≈ 6.22 µg/mL)	0.52 µM	1.05 µM	1.22 µM	9 mm	–	10.5 µM	2	–	–
CO[C@H]1[C@H](OC=O)[C@@H](O)[C@H](n2c3ccccc3c3c4c(c5c6ccccc6[nH]c5c32)C(=O)OC4=O)O[C@@H]1CO	–	8 mm	> 94 µM	> 9.4 µM	> 9.4 µM	> 19 µM	12 mm	5.7 µM (≈ 3.02 µg/mL)	–	–	–	–
